We go through one compound from US11318190B2, “Methods and compositions for treating liver disease” (UNITED STATES GOVERNMENT AS REPRESENTED BY THE DEPARTMENT …, priority 2017, dated 2022).

Assay [1] deals with large IMCLs. Put plainly: Large IMCLs treated with secretin with/without LY2109761, or with TGF-β1 (Example 2). It is filed as cell-based, mouse. The settings on record: LY2109761 10 nM. An excerpt:
Cholangiocytes were obtained by immunoaffinity separation as described herein above, using a monoclonal antibody (a gift from Dr. R. Faris, Brown University, Providence, R.I.) that is expressed by all intrahepatic cholangiocytes. HSCs from the selected groups of mice were isolated by LCM as described previously in Wu, N et al., The secretin/secretin receptor axis modulates liver fibrosis through changes in transforming growth factor-beta1 biliary secretion in mice, Hepatology (Baltimore, Md.) 64(3):865-879 (2016). Briefly, frozen liver sections (n=3, 10 μm thick) were incubated overnight with an anti-desmin (a marker of stellate cells) antibody. Then, desmin-positive cells were dissected from the slides using a LCM system Leica LMD7000 (Buffalo Grove, Ill.) and were collected before RNA extraction with the Arcturus PicoPure RNA isolation kit (Thermo Fisher Scientific CO, Mountain View, Calif.). The in vitro studies were performed in: (I) immortalized murine cholangiocyte lines derived from large cholangiocytes lining large ducts (IMCLs); and (ii) human hepatic stellate cell lines (HHSteCs; ScienCell Research Laboratories, Carlsbad, Calif.).
WT mice were treated for 1 wk with saline or secretin (Sct; 2.5 nmoles/kg body weight per day) before collecting cholangiocytes, HSCs and cholangiocyte supernatants. The levels of TGF-β1 were measured in short-term (6-hour) cultures of cholangiocytes by ELISA kits. Subsequently, we measured: (i) liver fibrosis by immunofluorescence for Col1a1 in liver sections and real-time PCR for TGF-β1, TFG-β1R, Col1a1, α-SMA and Fn1 in cholangiocytes and HSCs; and (ii) cellular senescence by immunofluorescence in liver sections for p16 and real-time PCR for p16 and p21 in cholangiocytes and HSC.
(§1) Biliary supernatants were obtained from normal and BDL WT mice and Sct^−/−, SR^−/− and Sct^−/−/SR^−/− BDL mice as well as normal WT mice treated with saline or secretin. HHSteCs were incubated with the aforementioned biliary supernatants (containing different levels of TGF-β1) for 24 hr (in the absence or presence of LY2109761) before measuring the expression of senescence and fibrosis genes by real-time PCR. Furthermore, HHSteCs were incubated with the supernatant of large IMCLs treated for 0.2% bovine serum albumin (basal) or secretin (10 nM) with/without LY2109761 for 6 hr before measuring the mRNA expression of fibrosis and senescence genes. To provide direct evidence that TGF-β1 directly modulates fibrosis and senescence of IMCLs and HHSteCs, these cells were stimulated with TGF-β1 (10 nM) for 24 hr before measuring the expression of PCNA as well as fibrosis and senescence genes by real-time PCR.

The test system of assay [2] is HHSteCs. Put plainly: HHSteCs incubated with biliary/IMCL supernatants with/without LY2109761, or with TGF-β1 (Example 2). It is filed as cell-based, human. The procedure: as §1
Assay [3] deals with HHSteCs. Put plainly: HHSteCs treated with cholangiocyte supernatants with/without LY2109761, TGF-β1 or r-VEGFA (Example 4). The class given is cell-based, human. To be noted: LY2109761 10 μM, cholangiocyte supernatants from Mdr2−/− mice, 12 hr. The procedure:
Cholangiocytes were obtained by immunoaffinity separation, Cholangiocytes were obtained by immunoaffinity separation as described herein above, using a monoclonal antibody (a gift from Dr. R. Faris, Brown University, Providence, R.I.) that is expressed by all intrahepatic cholangiocytes. Cell viability (greater than 97%) was assessed by trypan blue exclusion. HSCs were isolated by LCM as described herein above. Frozen liver sections (n=3, 10 μm thick) were incubated overnight with an antibody against desmin (marker of stellate cells). Following staining, desmin-positive HSCs were dissected from the slides by a LCM system Leica LMD7000 (Buffalo Grove, Ill.) and collected into a PCR tube before being analyzed. The RNA from HSCs was extracted with the Arcturus PicoPure RNA isolation kit (Thermo Fisher Scientific CO, Mountain View, Calif.). The in vitro studies were performed in our immortalized murine biliary cell lines (IMCLs) and human hepatic stellate cell lines (HHSteCs, Sciencell, Carlsbad, USA).
In biliary supernatants, the levels of TGF-β1 were measured by ELISA kits. HHSteCs were incubated with cholangiocyte supernatants from the selected groups of animals for 12 hr (in the absence or presence of LY2109761, 10 μM, a TGF-β1 receptor antagonist, Cayman Chemical, Ann Arbor, Mich.) before measuring the expression of VEGF-A and senescent and fibrosis genes by qPCR. To determine that Sct increases TGF-β1 levels by a microRNA 125b-dependent mechanism, IMCLs were treated with Sct (10 nM in the absence/presence of a microRNA 125b mimic precursor, 5 μM) for 12 hr before measuring TGF-β1 mRNA expression (by qPCR) and secretion by ELISA kits. To provide conclusive evidence that TGF-β1 directly modulates the function IMCLs and HHSteCs, these cells were stimulated with TGF-β1 (10 nM) for 12 hr before measuring the expression of VEGF-A and senescent and fibrosis genes by qPCR. […] We also evaluated by immunofluorescence the expression of VEGFR-2 in cell smears of IMCLs and HHSteCs. […]

In assay [4] the target is TGF-β receptor type II (Homo sapiens, UniProt P37173). The settings on record: cited from earlier work.
Sequence of TGF-β receptor type II (P37173 23-567): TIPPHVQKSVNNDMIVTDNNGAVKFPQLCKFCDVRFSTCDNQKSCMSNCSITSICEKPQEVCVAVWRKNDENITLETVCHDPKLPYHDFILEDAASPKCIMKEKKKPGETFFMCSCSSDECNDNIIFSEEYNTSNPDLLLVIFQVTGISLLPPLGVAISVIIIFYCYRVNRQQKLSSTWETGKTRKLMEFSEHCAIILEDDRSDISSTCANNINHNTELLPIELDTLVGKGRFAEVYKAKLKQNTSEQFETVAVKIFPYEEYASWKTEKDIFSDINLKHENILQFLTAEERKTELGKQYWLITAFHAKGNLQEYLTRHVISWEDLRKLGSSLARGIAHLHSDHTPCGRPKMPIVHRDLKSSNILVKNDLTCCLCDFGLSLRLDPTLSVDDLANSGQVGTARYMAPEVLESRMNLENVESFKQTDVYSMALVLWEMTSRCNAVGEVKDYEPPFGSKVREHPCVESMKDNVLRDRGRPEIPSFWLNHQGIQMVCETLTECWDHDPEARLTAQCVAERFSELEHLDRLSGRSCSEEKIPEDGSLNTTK

As for `c1ccc(-c2nn3c(c2-c2ccnc4cc(OCCN5CCOCC5)ccc24)CCC3)nc1` [LY2109761], the “effect of preincubation on secretin-induced TGF-β1 secretion and fibrosis/senescence genes of large IMCLs” value in assay [1] is “prevented”. Moreover, the “effect of preincubation on fibrosis/senescence gene changes in HHSteCs” value in assay [2] (before supernatant from secretin-treated WT mice) is reported as “reversed”. Further, the “effect of preincubation on fibrosis/senescence gene changes of HHSteCs” value in assay [2] (supernatant of secretin-treated large IMCLs) is “reversed”. The “effect of preincubation on VEGF-A, fibrosis and senescence gene changes in HHSteCs” value in assay [3] is reported as “reversed”. Further, the Ki in assay [4] was 300 nM.

Usually Ki stands for the dissociation constant of the complex between target and ligand, obtained from inhibition or displacement.
